Assay results reported in US4021481A, “Amido derivatives of 2,4,6-triiodobenzoic acids containing at least one N-hydroxyalkyl and at least two hydroxyl groups” (Nyegaard & Co. A/S, priority 1969, dated 1977).
Values after ≈ are worked out from the molar mass of the structure shown. Like-named read-outs stand apart in the source and are kept apart here. One block for each molecule: values may come before it.

Columns and labels:
mice [1] = assay: Intracerebral toxicity in mice (LD50); type: in vivo
Source text: (§1) As indicated above, the new non-ionic compounds according to the invention have shown markedly low levels of toxicity, especially in intracerebral tests. […] It will be seen that all the new compounds listed are very much better than the known compounds in the intracerebral test.
(§2) Intravenous and Intracerebral Toxicity
(§3) Most of the compounds were so inert that it was not physically possible to inject sufficient substance to kill 50% of the mice and in such cases only a minimum value can be given for the LD50.

mice [2] = assay: Intravenous toxicity in mice (LD50); type: in vivo
Source text: as §1, §2, §3

Solubility in water = type: physicochemical; details: for solubility: water
[3] = Osmolality of aqueous solution; type: physicochemical; details: 37° C.; 300 mg I/ml
Description: As indicated above, the compounds according to the invention are of low osmolality as compared to conventional ionic contrast agents and many of the compounds show even lower osmolality values than would have been expected. The observed osmolality in each case would be expected to be about 0.8 mol/kg but compounds 3, 33, 35, 44 and 11 identified in Table I have shown osmolality values of 0.47, 0.48, 0.61, 0.53 and 0.48 mol/kg respectively at 37° C. (300 mg I ml). The last two compounds in Table 2, which are ionic compounds shown for comparison, have osmolality values of about 1.6 mol/kg.

[4] = known compounds, dose 0.05 ml/20 g mouse, concentration not given
[5] = concentration administered 280 mgI/ml, N-methylglucamine salt
[6] = room temperature, figure in parentheses, read-out: Solubility in water at room temperature
[7] = room temperature, read-out: Solubility in water at room temperature (class)
[8] = 300 mgI/ml, dose 0.05 ml/20 g mouse
[9] = 300 mgI/ml, dose 0.10 ml/20 g mouse
[10] = concentration administered 300 mgI/ml
[11] = 400 mgI/ml, dose 0.05 ml/20 g mouse

Structure (SMILES): O=S(=O)(O)CI [Iodomethanesulphonic acid, reference compound]
Intracerebral LD50 (mice [1]; [4]): 195 mgI/kg

Structure (SMILES): CC(=O)Nc1c(I)c(C(=O)O)c(I)c(N(C)C(C)=O)c1I [N-Methyl-3,5-diacetamido-2,4,6-triiodobenzoic acid, reference compound]
Intravenous LD50 (mice [2]; [5]): 6000 mgI/kg
Intracerebral LD50 (mice [1]; [4]): 130 mgI/kg

Structure (SMILES): O=S(=O)(CI)N(CCO)CCO [Compound 29, N-(Iodomethanesulphonyl)-diethanolamine]
Solubility in cold water (Solubility in water; cold water, in words): sparingly soluble in cold
Solubility in hot water (Solubility in water; in words): Soluble in hot water

solubility (Solubility in water; [6]): 79 mg/mL (≈ 99.9 mM)
solubility (Solubility in water; [7]): < 200 mg/mL
Structure (SMILES): CC(=O)Nc1c(I)c(NC(C)=O)c(I)c(C(=O)N(C)C[C@H](O)[C@@H](O)[C@H](O)[C@H](O)CO)c1I [Compound 25, N-(3,5-diacetamido-2,4,6-triiodobenzoyl)-N-methyl-glucamine]

Structure (SMILES): CC(=O)N(CCO)c1c(I)c(C(=O)N(C)CC(O)CO)c(I)c(N(CCO)C(C)=O)c1I (stereo not shown) [Compound 44]
solubility (Solubility in water; [7]): > 500 mg/mL
Osmolality [3]: 0.53 mol/kg
Intracerebral LD50 (mice [1]; [8]): > 750 mgI/kg
Intracerebral LD50 (mice [1]; [9]): > 1500 mgI/kg

solubility (Solubility in water; [7]): > 500 mg/mL
Structure (SMILES): CC(=O)N(C)c1c(I)c(C(=O)N(CCO)CCO)c(I)c(N(CCO)C(C)=O)c1I [Compound 39, N-[3-N-methylacetamido-5-N-(β-hydroxyethyl)-acetamido-2,4,6-triiodobenzoyl]-diethanolamine]

solubility (Solubility in water; [6]): 213 mg/mL (≈ 298 mM)
solubility (Solubility in water; [7]): 200 to 500 mg/mL (≈ 280 to 699 mM)
Structure (SMILES): CC(=O)Nc1c(I)c(C(=O)N(CCO)CCO)c(I)c(N(C)C(C)=O)c1I [Compound 34, N-(N-methyl-3,5-diacetamido-2,4,6-triiodobenzoyl)-N,N-di-(β-hydroxyethyl)-amine]

Structure (SMILES): CNC(=O)c1c(I)c(NC(C)=O)c(I)c(C(=O)O)c1I [5-Acetamido-2,4,6-triiodo-N-methylisophthalamic acid, reference compound]
Intravenous LD50 (mice [2]; [5]): 6000 mgI/kg
Intracerebral LD50 (mice [1]; [4]): 210 mgI/kg

solubility (Solubility in water; [7]): > 500 mg/mL
Structure (SMILES): CC(=O)N(C)c1c(I)cc(I)c(C(=O)N(C)C[C@H](O)[C@@H](O)[C@H](O)[C@H](O)CO)c1I [Compound 31, N-(3-N-methylacetamido-2,4,6-triiodobenzoyl)-N-methylglucamine]

solubility (Solubility in water; [6]): 8.6 mg/mL (≈ 11.1 mM)
solubility (Solubility in water; [7]): < 200 mg/mL
Structure (SMILES): CC(=O)N(C)c1c(I)c(C(=O)NC(CO)(CO)CO)c(I)c(N(CCO)C(C)=O)c1I [Compound 41, N-[3-N-methylacetamido-5-N-(β-hydroxyethyl)-acetamido-2,4,6-triiodobenzoyl]-N-[tris-(hydroxymethyl)-methyl]-amine]

Structure (SMILES): CC(=O)N(C)c1c(I)c(C(=O)N[C@H]2C(O)O[C@H](CO)[C@@H](O)[C@@H]2O)c(I)c(N(CCO)C(C)=O)c1I (stereo partly drawn) [Compound 10, N-[3-N-(β-hydroxyethyl)-acetamido-5-N-methylacetamido-2,4,6-triiodobenzoyl]-glucosamine]
solubility (Solubility in water; [7]): > 500 mg/mL
Intravenous LD50 (mice [2]; [10]): 8250 mgI/kg
Intracerebral LD50 (mice [1]; [8]): > 750 mgI/kg
Intracerebral LD50 (mice [1]; [9]): > 1500 mgI/kg

Structure (SMILES): CC(=O)OCCN(C(C)=O)c1c(I)c(C(=O)N(C)C[C@H](O)[C@@H](O)[C@H](O)[C@H](O)CO)c(I)c(N(C)C(C)=O)c1I [Compound 36, N-[3-N-methylacetamido-5-N-(β-acetoxyethyl)-acetamido-2,4,6-triiodobenzoyl]-N-methylglucamine]
solubility (Solubility in water; [7]): 200 to 500 mg/mL (≈ 224 to 561 mM)

solubility (Solubility in water; [7]): > 500 mg/mL
Structure (SMILES): CC(=O)Nc1c(I)c(NC(C)=O)c(I)c(C(=O)N[C@H]2C(O)O[C@H](CO)[C@@H](O)[C@@H]2O)c1I (stereo partly shown) [Compound 14, N-(3,5-diacetamido-2,4,6-triiodobenzoyl)-glucosamine]

solubility (Solubility in water; [7]): > 500 mg/mL
Structure (SMILES): CC(=O)NCc1c(I)c(NC(C)=O)c(I)c(C(=O)N(C)C[C@H](O)[C@@H](O)[C@H](O)[C@H](O)CO)c1I [Compound 7, N-(3-Acetamido-5-acetamidomethyl-2,4,6-triiodobenzoyl)-N-methylglucamine]

Structure (SMILES): CC(=O)N(CCO)c1c(I)c(C(=O)N(C)C[C@H](O)[C@@H](O)[C@H](O)[C@H](O)CO)c(I)c(N(CCO)C(C)=O)c1I [Compound 43, N-[3,5-bis-N-(β -hydroxyethyl)-acetamido-2,4,6-triiodobenzoyl]-N-methylglucamine]
solubility (Solubility in water; [7]): > 500 mg/mL
Intravenous LD50 (mice [2]; [10]): 7500 mgI/kg
Intracerebral LD50 (mice [1]; [11]): > 1000 mgI/kg
Intracerebral LD50 (mice [1]; 400 mgI/ml, dose 0.10 ml/20 g mouse): > 2000 mgI/kg

solubility (Solubility in water; 28°, read-out: Solubility in water at 28°): 14 mg/mL (≈ 18.1 mM)
Structure (SMILES): CNC(=O)c1c(I)c(NC(C)=O)c(I)c(C(=O)N[C@H]2C(O)O[C@H](CO)[C@@H](O)[C@@H]2O)c1I (stereo partly drawn) [Compound 19, N-(3-acetamido-5-N-methylcarbamoyl-2,4,6-triiodobenzoyl)-D-glucosamine]

Structure (SMILES): CC(=O)Nc1c(I)c(C(=O)N[C@@H](CO)[C@@H](O)[C@H](O)[C@H](O)CO)c(I)c(N(C)C(C)=O)c1I [Compound 15, N-(N-methyl-3,5-diacetamido-2,4,6-triiodobenzoyl)-2-glucamine]
solubility (Solubility in water; [7]): > 500 mg/mL
Intravenous LD50 (mice [2]; concentration administered 300 mgI/ml, dose 1.0 ml/20 g mouse): > 15000 mgI/kg
Intracerebral LD50 (mice [1]; [9]): > 1500 mgI/kg

solubility (Solubility in water; [7]): > 500 mg/mL
Structure (SMILES): CC(=O)N(C)c1c(I)cc(I)c(C(=O)N[C@H]2C(O)O[C@H](CO)[C@@H](O)[C@@H]2O)c1I (stereo partly drawn) [Compound 32, N-(3-N-methylacetamido-2,4,6-triodobenzoyl)-D-glucosamine]

Solubility in hot water (Solubility in water; in words): Very soluble in hot water
solubility (Solubility in water; cold water, read-out: Solubility in cold water): ~100 mg/mL (≈ 250 mM)
Structure (SMILES): CN(C[C@H](O)[C@@H](O)[C@H](O)[C@H](O)CO)S(=O)(=O)CI [Compound 28, N-(Iodomethane sulphonyl)-N-methylglucamine]

solubility (Solubility in water; [6]): 4 mg/mL (≈ 5.59 mM)
solubility (Solubility in water; [7]): < 200 mg/mL
Structure (SMILES): CC(=O)N(C)c1c(I)c(C(=O)NCCO)c(I)c(N(CCO)C(C)=O)c1I [Compound 37, N-[3-N-methylacetamido-5-N-(β-hydroxyethyl)-acetamido-2,4,6-triiodobenzoyl]-ethanolamine]

Structure (SMILES): CC(=O)N(CCO)c1c(I)c(C(=O)N[C@H]2C(O)O[C@H](CO)[C@@H](O)[C@@H]2O)c(I)c(N(CCO)C(C)=O)c1I (stereo partly drawn) [Compound 12, N-[N,N'-di-(β-hydroxyethyl)-3,5-diacetamido-2,4,6-triiodobenzoyl]-glucosamine]
solubility (Solubility in water; [7]): > 500 mg/mL
Intravenous LD50 (mice [2]; concentration administered 300 mgI/ml, dose 0.8 ml/20 g mouse): > 12000 mgI/kg
Intracerebral LD50 (mice [1]; [9]): > 1500 mgI/kg

solubility (Solubility in water; [7]): > 500 mg/mL
Structure (SMILES): CC(=O)Nc1c(I)cc(I)c(C(=O)N(C)C[C@H](O)[C@@H](O)[C@H](O)[C@H](O)CO)c1I [Compound 30, N-(3-acetamido-2,4,6-triiodobenzoyl)-N-methyl-glucamine]

solubility (Solubility in water; [6]): 255 mg/mL (≈ 350 mM)
solubility (Solubility in water; [7]): 200 to 500 mg/mL (≈ 274 to 686 mM)
Structure (SMILES): CC(=O)N(C)c1c(I)c(C(=O)N(C)CCO)c(I)c(N(CCO)C(C)=O)c1I [Compound 38, N-[3-N-methylacetamido-5-N-(β-hydroxyethyl)-acetamido-2,4,6-triiodobenzoyl]-N-methylethanolamine]

solubility (Solubility in water; [6]): 214 mg/mL (≈ 287 mM)
solubility (Solubility in water; [7]): 200 to 500 mg/mL (≈ 268 to 671 mM)
Structure (SMILES): CC(=O)N(CCO)c1c(I)c(C(=O)NCCO)c(I)c(N(CCO)C(C)=O)c1I [Compound 45, N-[3,5-bis-N-(β-hydroxyethyl)-acetamido-2,4,6-triiodobenzoyl]-ethanolamine]

Structure (SMILES): CNC(=O)c1c(I)c(NC(C)=O)c(I)c(C(=O)N(CCO)C[C@H](O)[C@@H](O)[C@H](O)[C@H](O)CO)c1I [Compound 49, N-(3-Acetamido-5-N-methylcarbamoyl-2,4,6-triiodobenzoyl)-N-(2-hydroxyethyl)-glucamine]
Intravenous LD50 (mice [2]; [10]): 15000 mgI/kg
Intracerebral LD50 (mice [1]; [9]): > 1500 mgI/kg

Structure (SMILES): CNC(=O)c1c(I)c(NC(C)=O)c(I)c(C(=O)N(C)C[C@H](O)[C@@H](O)[C@H](O)[C@H](O)CO)c1I [Compound 6]
solubility (Solubility in water; [7]): > 500 mg/mL
Intravenous LD50 (mice [2]; [10]): 10000 mgI/kg
Intracerebral LD50 (mice [1]; [9]): > 1500 mgI/kg

solubility (Solubility in water; [7]): > 500 mg/mL
Structure (SMILES): CC(=O)N(CCO)c1c(I)c(C(=O)N(CCO)CCO)c(I)c(N(CCO)C(C)=O)c1I [Compound 5, N-[N,N'-di-(β-hydroxyethyl)-3,5-diacetamido-2,4,6-triiodobenzoyl]-diethanolamine]

solubility (Solubility in water; [7]): > 500 mg/mL
Structure (SMILES): CC(=O)N(C)c1c(I)cc(I)c(C(=O)NC[C@H](O)[C@@H](O)[C@H](O)[C@H](O)CO)c1I [Compound 1, N-(3-N-methylacetamido-2,4,6-triiodobenzoyl)-glucamine]

Structure (SMILES): CC(=O)N(C)c1c(I)c(C(=O)N(C)CC(O)CO)c(I)c(N(CCO)C(C)=O)c1I (stereo not drawn) [Compound 4, N-[3-N-(β-hydroxyethyl)-acetamido-5-N-methylacetamido-2,4,6-triiodobenzoyl]-N-methyl-2,3-dihydroxypropylamine]
solubility (Solubility in water; [7]): > 500 mg/mL
Intracerebral LD50 (mice [1]; [11]): > 1000 mgI/kg

solubility (Solubility in water; [6]): 2.6 mg/mL (≈ 3.49 mM)
solubility (Solubility in water; [7]): < 200 mg/mL
Structure (SMILES): CC(=O)N(C)c1c(I)c(C(=O)NCC(O)CO)c(I)c(N(CCO)C(C)=O)c1I (stereo not drawn) [Compound 40, N-[3-N-methylacetamido-5-N-(β-hydroxyethyl)-acetamido-2,4,6-triiodobenzoyl]-N-(2,3-dihydroxypropyl)-amine]
